Measurements taken from patent US20140235705A1, “FORMULATIONS OF THIOPHENE COMPOUNDS” (Vertex Pharmaceuticals Incorporated, priority 2011, published 2014).
Structures can show the parent of a compound that is named as a salt.

Assay: Solubility (Cs) of Compound (1) solid forms in FESSIF
Format: physicochemical
Conditions: FESSIF (fed state simulated intestinal fluid)
Description: Simulated human intestinal media suitable for the invention can be found in the art, for example, those described in Jantratid, et al., “Dissolution Media Simulating Conditions in the Proximal Human Gastrointestinal Tract: An Update,” Pharmaceutical Research, 25(7), 2008. In one embodiment, a human fed state simulated intestinal fluid ([…]) is employed in the invention. A typical […] includes sodium hydroxide, citric acid, sodium chloride, sodium taurocholate, and lecithin (L-Alpha-Phosphatidyl Choline). A specific example is described in Example 9 below. […] [table]

Structure (SMILES)	solubility of Compound (1) in FESSIF
CC(C)(C)C#Cc1cc(N(C(=O)[C@H]2CC[C@H](C)CC2)[C@H]2CC[C@H](O)CC2)c(C(=O)O)s1 [Form A of Compound (1), 5-(3,3-Dimethyl-but-1-ynyl)-3-[(trans-4-hydroxy-cyclohexyl)-(trans-4-methyl-cyclohexanecarbonyl)-amino]-thiophene-2-carboxylic acid]	900 µg/mL
CC(C)(C)C#Cc1cc(N(C(=O)[C@H]2CC[C@H](C)CC2)[C@H]2CC[C@H](O)CC2)c(C(=O)O)s1 [Form M of Compound (1), 5-(3,3-Dimethyl-but-1-ynyl)-3-[(trans-4-hydroxy-cyclohexyl)-(trans-4-methyl-cyclohexanecarbonyl)-amino]-thiophene-2-carboxylic acid]	825 µg/mL
CC(C)(C)C#Cc1cc(N(C(=O)[C@H]2CC[C@H](C)CC2)[C@H]2CC[C@H](O)CC2)c(C(=O)O)s1 [tromethamine salt of Compound (1), 5-(3,3-Dimethyl-but-1-ynyl)-3-[(trans-4-hydroxy-cyclohexyl)-(trans-4-methyl-cyclohexanecarbonyl)-amino]-thiophene-2-carboxylic acid]	2600 µg/mL
